Data from patent US6084081A, “Lewis X derivatives” (Daikin Industries, Ltd., priority 1996, dated 2000).

Columns and labels:
[1] = target: T1, P-selectin (Homo sapiens, UniProt P16109); details: relative to sugar chain (3); cited from earlier work
T1 sequence (P16109 42-830): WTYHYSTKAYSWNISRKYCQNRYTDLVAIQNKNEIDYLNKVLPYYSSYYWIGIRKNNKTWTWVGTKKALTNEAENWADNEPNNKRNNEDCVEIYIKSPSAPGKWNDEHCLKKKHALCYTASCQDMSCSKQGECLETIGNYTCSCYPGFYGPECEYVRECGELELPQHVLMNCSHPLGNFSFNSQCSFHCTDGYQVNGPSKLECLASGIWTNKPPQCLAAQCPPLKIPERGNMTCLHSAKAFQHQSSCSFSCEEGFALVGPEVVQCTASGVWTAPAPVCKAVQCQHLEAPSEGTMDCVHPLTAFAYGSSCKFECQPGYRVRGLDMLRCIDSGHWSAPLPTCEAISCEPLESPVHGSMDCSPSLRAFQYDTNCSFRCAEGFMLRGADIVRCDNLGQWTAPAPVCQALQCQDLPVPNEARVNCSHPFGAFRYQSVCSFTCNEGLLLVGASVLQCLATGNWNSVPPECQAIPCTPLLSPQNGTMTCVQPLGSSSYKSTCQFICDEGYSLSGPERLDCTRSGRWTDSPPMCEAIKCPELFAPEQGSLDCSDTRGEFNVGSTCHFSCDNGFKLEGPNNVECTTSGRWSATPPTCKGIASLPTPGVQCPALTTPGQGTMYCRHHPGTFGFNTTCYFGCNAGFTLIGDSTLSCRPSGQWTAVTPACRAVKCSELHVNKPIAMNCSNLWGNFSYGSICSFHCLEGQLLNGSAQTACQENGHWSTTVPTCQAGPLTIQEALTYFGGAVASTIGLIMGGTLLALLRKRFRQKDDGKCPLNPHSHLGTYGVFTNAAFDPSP

[2] = target: T2, α-fucosidase (Bos taurus, UniProt Q2KIM0); assay: Metabolic stability test: substrate decomposition reaction by α-fucosidase (remaining substrate by TLC); assay type: in vitro ADME
T2 construct: purchased Wako Pure Chemical Industries, Ltd
T2 sequence (Q2KIM0 23-468): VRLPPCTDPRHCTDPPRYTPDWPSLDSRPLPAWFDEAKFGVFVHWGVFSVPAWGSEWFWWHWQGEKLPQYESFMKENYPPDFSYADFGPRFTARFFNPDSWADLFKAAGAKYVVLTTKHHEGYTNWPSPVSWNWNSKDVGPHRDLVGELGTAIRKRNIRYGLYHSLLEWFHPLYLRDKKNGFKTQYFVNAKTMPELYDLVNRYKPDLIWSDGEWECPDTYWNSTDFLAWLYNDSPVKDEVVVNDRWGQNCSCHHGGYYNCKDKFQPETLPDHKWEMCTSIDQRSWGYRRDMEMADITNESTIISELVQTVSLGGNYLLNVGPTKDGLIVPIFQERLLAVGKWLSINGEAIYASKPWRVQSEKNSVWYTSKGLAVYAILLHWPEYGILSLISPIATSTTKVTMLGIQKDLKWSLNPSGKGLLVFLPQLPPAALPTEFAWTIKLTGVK
Description: The TLC plate was developed until the reaction solution front moved 2 cm (developing solvent; n-butanol:acetic acid:water=8:5:4). After immersion in phosphomolybdic acid.phosphoric acid.sulfonic acid mixed aqueous solution, the plate was heated to develop colors and the amount of the remaining substrate was measured.

[3] = tested on: acute pulmonary inflammation induced using a cobra venom factor; details: rats, Mulligan et al., Nature 364, 149 (1993); cited from earlier work

Compound: 1-deoxy sialyl Lewis X [sugar chain (4)]
- inhibitory activity against P-selectin, times as potent as sugar chain (3) [1]: about 20 times

Compound: CCCCCCCCCCCCCC=CC(O)C(COC1OC(CO)C(OC2OC(CO)C(O)C(OC3OC(CF)C(OC4OC(CO)C(O)C(OC5(C(=O)O)CC(O)C(NC(C)=O)C(C(O)C(O)CO)O5)C4O)C(OC4OC(C)C(O)C(O)C4O)C3NC(C)=O)C2O)C(O)C1O)NC(=O)CCCCCCCCCCCCCCCCC [Compound 24, O-(5-Acetamide-3,5-dideoxy-D-glycero-α-D-galacto-2-nonulopyranosylonic acid)-(2→3)-O-β-D-glucopyranosyl-(1→4)-O-[α-L-fucopyranosyl-(1→3)]-O-(2-acetamide-2,6-dideoxy-6-fluoro-β-D-galactopyranosyl)-(1→3)-O-β-D-galactopyranosyl)-(1→4)-β-D-glucopyranosyl-(1→1)(2S, 3R, 4E)-2-octadecaneamide-4-octadecene-1,3-diol]
- stability against decomposition by α-fucosidase (in words) ([2]; in the presence of α-fucosidase): more strongly resists the decomposition by α-fucosidase than a natural Ganglioside
- Remaining Syalyl Lewis X (%) ([2]; α-fucosidase, time 0 min): 100%

Compound: sialyl Lewis X sugar chain [sialyl Lewis X sugar chain (3)]
- effect on acute pulmonary inflammation (in words) [3]: ameliorates acute pulmonary inflammation
